From US20090124598A1, “PHARMACEUTICAL USE OF SUBSTITUTED AMIDES” (priority 2005, published 2009) come the findings set out here.

One may read the IC50 as the concentration needed to halve the response being measured.

The target of this assay is T1, h-11βHSD1 (Homo sapiens, UniProt P28845).
T1 construct: made in house
T1 sequence (P28845 whole entry): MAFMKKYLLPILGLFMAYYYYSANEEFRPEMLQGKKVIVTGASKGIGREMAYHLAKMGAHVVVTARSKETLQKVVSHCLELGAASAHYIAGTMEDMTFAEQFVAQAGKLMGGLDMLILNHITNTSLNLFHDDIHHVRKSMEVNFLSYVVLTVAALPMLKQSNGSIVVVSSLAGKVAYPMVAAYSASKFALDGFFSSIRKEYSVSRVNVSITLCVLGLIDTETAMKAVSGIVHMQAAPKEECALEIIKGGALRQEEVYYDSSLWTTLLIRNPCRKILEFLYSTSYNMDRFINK
The assay can be described thus: 11βHSD1 enzyme assay (SPA). Type of assay: biochemical. The settings on record: extract of yeast transformed with h-11βHSD1; 120 nM 3H-cortisone, 60 min at 30° C., pH=7.4; read-out: Inhibition of 11βHSD1, h-11βHSD1 IC50 values. Here is the method: 3H-cortisone and anti-rabbit Ig coated scintillation proximity assay (SPA) beads were purchased from Amersham Pharmacia Biotech, P-NADPH was from Sigma and rabbit anticortisol antibodies were from Fitzgerald. An extract of yeast transformed with h-11βHSD1 (Hult et al., FEBS Lett., 441, 25 (1998)) was used as the source of enzyme. The test compounds were dissolved in DMSO (10 mM). All dilutions were performed in a buffer containing 50 mM TRIS-HCl (Sigma Chemical Co), 4 mM EDTA (Sigma Chemical Co), 0.1% BSA (Sigma Chemical Co), 0.01% Tween-20 (Sigma Chemical Co) and 0.005% bacitracin (Novo Nordisk A/S), pH=7.4. Optiplate 96 wells plates were supplied by Packard. The amount of 3H-cortisol bound to the SPA beads was measured on TopCount NXT, Packard.
h-11βHSD1, 120 nM 3H-cortisone, 4 mM β3-NADPH, antibody (1:200), serial dilutions of test compound and SPA particles (2 mg/well) were added to the wells. The reaction was initiated by mixing the different components and was allowed to proceed under shaking for 60 min at 30° C. The reaction was stopped be the addition of 10 fold excess of a stopping buffer containing 500 μM carbenoxolone and 1 μM cortisone. Data was analysed using GraphPad Prism software.
With `COC(=O)CN(C)C(=O)N(C)Cc1ccc(C(=O)N2CC3(C)CC2CC(C)(C)C3)cc1` (stereo not drawn) [Example 3-8, {1,3-Dimethyl-3-[4-(1,3,3-trimethyl-6-aza-bicyclo[3.2.1]octane-6-carbonyl)-benzyl]-ureido}-acetic Acid Methyl Ester], the IC50 was determined as 500 nM.

As for `CC(C)N(Cc1ccc(C(=O)N2CC3(C)CC2CC(C)(C)C3)cc1)S(=O)(=O)C(F)(F)F` (stereo not drawn) [Example 2-5, Trifluoro-N-isopropyl-N-[4-(1,3,3-trimethyl-6-aza-bicyclo[3.2.1]octane-6-carbonyl)-benzyl]-methanesulfonamide], the IC50 amounted to 10 nM.

For the compound `CN(Cc1ccc(C(=O)N2CC3(C)CC2CC(C)(C)C3)cc1)C(=O)c1ccc(S(C)(=O)=O)cc1` (stereo not drawn) [Example 1-28, 4-Methanesulfonyl-N-methyl-N-[4-(1,3,3-trimethyl-6-aza-bicyclo[3.2.1]octane-6-carbonyl)-benzyl]-benzamide], the IC50 came to 19 nM.
